Drawing on PubChem BioAssay (NCI), this text covers GI50 and TGI for 16 molecules.

Some test systems named below: OVCAR-4 ovarian; OVCAR-8 ovarian; PC-3 prostate; SK-MEL-2 melanoma; SN12C renal; U251 CNS; UACC-257 melanoma; UO-31 renal.
What all share (assay): growth of human tumour cells (NCI), 48 h

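Results reflect a 48-hour exposure of cells in 96-well plates to compound at five concentrations. The concentration for 50% growth inhibition is given as GI50. TGI: total growth inhibition.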 Some results are limits rather than exact numbers.

Consider `CCCCCCCCCCCCN=C(N)c1ccc(N2CCN(c3ccc(C(N)=NCCCCCCCCCCCC)cc3)CC2)cc1`, for which the GI50 is 8.88 µM in the experiment with OVCAR-4 ovarian; 11.4 µM in the experiment on OVCAR-8 ovarian; 9.02 µM with PC-3 prostate; 17.5 µM in the experiment with SK-MEL-2 melanoma; 8.99 µM in the experiment on SN12C renal; 11.3 µM in the experiment on U251 CNS. For the same molecule, the GI50 in the experiment on UACC-257 melanoma was 26.1 µM; with UO-31 renal it was 22.6 µM. Besides, the TGI with OVCAR-4 ovarian is 20.9 µM; with OVCAR-8 ovarian it was 40.1 µM; in the experiment with PC-3 prostate it was 20.2 µM; in the experiment on SK-MEL-2 melanoma, over 50 µM; in the experiment on SN12C renal, 18.7 µM; in the experiment on U251 CNS it was 24.9 µM. Besides, the TGI in the experiment on UACC-257 melanoma and in the experiment on UO-31 renal was over 50 µM throughout.
As to `C(=C\C(Sc1ccccc1)c1ccccc1)/NNC1=NC(c2ccccc2)C(c2ccccc2)=NN1` (stereo not given), the TGI with OVCAR-4 ovarian, with OVCAR-8 ovarian, with SK-MEL-2 melanoma, in the experiment on SN12C renal, in the experiment on U251 CNS and with UACC-257 melanoma was over 100 µM each time. Also, in the experiment with UO-31 renal, the TGI is over 100 µM.
On to `c1ccc2c(c1)Cc1c(Cc3csc4ccccc34)ccc3cccc-2c13`, for which the TGI with OVCAR-4 ovarian, with OVCAR-8 ovarian, in the experiment on SK-MEL-2 melanoma, in the experiment with SN12C renal, with U251 CNS and in the experiment on UACC-257 melanoma was over 100 µM throughout. In addition, the TGI in the experiment with UO-31 renal was over 100 µM.
Turning to `CCOC(=O)c1[nH]c2cc(OC)c(OC)cc2c1CN(C)C`, the TGI in the experiment with OVCAR-4 ovarian, with OVCAR-8 ovarian, with SK-MEL-2 melanoma, in the experiment on SN12C renal, with U251 CNS and in the experiment with UACC-257 melanoma was over 100 µM throughout. Further, in the experiment on UO-31 renal, the TGI is over 100 µM.
On to `Cc1ccc(N=C2N=C(N3CC(C)OC(C)C3)c3ccccc32)cc1` (stereo not given), for which the TGI was 52.1 µM in the experiment with OVCAR-4 ovarian; over 100 µM in the experiment on OVCAR-8 ovarian; 70.4 µM in the experiment on SK-MEL-2 melanoma; over 100 µM in the experiment with SN12C renal; over 100 µM in the experiment on U251 CNS; 74.6 µM in the experiment with UACC-257 melanoma. The same molecule had a TGI in the experiment with UO-31 renal of 54.2 µM.
Turning to `O=C(N/C(=C\c1ccccc1O)c1nc2ccccc2[nH]1)c1ccccc1`, the TGI in the experiment on OVCAR-4 ovarian, in the experiment on OVCAR-8 ovarian, with SK-MEL-2 melanoma, in the experiment on SN12C renal, with U251 CNS and with UACC-257 melanoma was over 100 µM in each case. In the experiment with UO-31 renal, the TGI was over 100 µM.
Regarding `COc1ccc(O)cc1C(O)c1ccccc1` (stereo not given), the TGI in the experiment with OVCAR-4 ovarian, in the experiment with OVCAR-8 ovarian, with SK-MEL-2 melanoma, in the experiment on SN12C renal, in the experiment on U251 CNS and in the experiment on UACC-257 melanoma was over 100 µM in each case. The molecule also registered a TGI in the experiment with UO-31 renal of over 100 µM.
Regarding `CC(=O)NNc1nc(C)c(C(=O)NNC(=O)C(=O)Nc2c([N+](=O)[O-])ccc(C)c2C)s1`, the TGI with OVCAR-4 ovarian, in the experiment on OVCAR-8 ovarian, with SK-MEL-2 melanoma, in the experiment on SN12C renal, in the experiment with U251 CNS and with UACC-257 melanoma was over 100 µM each time. In the experiment on UO-31 renal, the TGI was over 100 µM.
For the molecule `CC(=O)c1ccccc1NC(=O)C(=O)C(C(=O)c1ccccc1-c1ccccc1)C1OC(=O)c2ccccc21` (stereo not given), the TGI in the experiment on OVCAR-4 ovarian is over 100 µM; with OVCAR-8 ovarian, 47.9 µM; in the experiment on SK-MEL-2 melanoma, 40.5 µM; in the experiment on SN12C renal, 43.5 µM; in the experiment with U251 CNS it was 30.3 µM; in the experiment on UACC-257 melanoma it was 32.3 µM. This molecule also showed a TGI in the experiment with UO-31 renal of 32.8 µM.
For the molecule `CCOC(=N)CC(=O)Nc1ccccc1`, the TGI is over 46.4 µM in the experiment on OVCAR-4 ovarian; over 21.5 µM in the experiment with OVCAR-8 ovarian; over 31.6 µM in the experiment with SK-MEL-2 melanoma; over 46.4 µM in the experiment on SN12C renal; over 100 µM in the experiment on U251 CNS; over 46.4 µM in the experiment on UACC-257 melanoma. Moreover, the TGI in the experiment with UO-31 renal is over 46.4 µM.
Turning to `CC1(C)C(=O)C(C)(C)C1=NNC(N)=S`, the TGI with OVCAR-4 ovarian, in the experiment with OVCAR-8 ovarian, in the experiment on SN12C renal, with U251 CNS, in the experiment on UACC-257 melanoma and in the experiment on UO-31 renal was over 100 µM each time.
For `CCCCCCCCCCCCCCCC(=O)OCCOCCOCCOCCOCCOC(=O)CCCCCCCCCCCCCCC`, the TGI with OVCAR-4 ovarian, in the experiment on OVCAR-8 ovarian, in the experiment on SK-MEL-2 melanoma, with SN12C renal, in the experiment on U251 CNS and with UACC-257 melanoma was over 100 µM in each case. The TGI in the experiment on UO-31 renal is over 100 µM.
With `CCc1cc2c(O)c(c1)Cc1cc(CC)cc(c1O)Cc1cc(CC)cc(c1O)Cc1cc(CC)cc(c1O)Cc1cc(CC)cc(c1O)Cc1cc(CC)cc(c1O)Cc1cc(CC)cc(c1O)C2`, the TGI in the experiment on OVCAR-4 ovarian, with OVCAR-8 ovarian, with SK-MEL-2 melanoma, with SN12C renal, in the experiment on U251 CNS and in the experiment with UACC-257 melanoma was over 100 µM in each case. The TGI in the experiment with UO-31 renal is over 100 µM.
For `O=C1C=C2CCCC2C(C(=O)O)(C(=O)O)C1` (stereo not given), the TGI in the experiment with OVCAR-4 ovarian, in the experiment on OVCAR-8 ovarian, with SK-MEL-2 melanoma, with SN12C renal, in the experiment on U251 CNS and with UACC-257 melanoma was over 100 µM throughout. For the same molecule, the TGI in the experiment on UO-31 renal was over 100 µM.
As for `O=C(N=c1nc(NC(=O)c2ccccc2)ss1)c1ccccc1`, the TGI is over 100 µM in the experiment with OVCAR-4 ovarian; 82.8 µM with OVCAR-8 ovarian; over 100 µM in the experiment on SK-MEL-2 melanoma; 66.6 µM with SN12C renal; 37.1 µM in the experiment with U251 CNS; 48.1 µM with UACC-257 melanoma. The same molecule had a TGI in the experiment with UO-31 renal of 62.8 µM.
As for `O=C(CC1C(=O)Nc2ccccc2S1(=O)=O)Nc1ccc(Cl)cc1` (stereo not given), the TGI was 77.2 µM in the experiment on OVCAR-4 ovarian; over 100 µM in the experiment on OVCAR-8 ovarian; 65.3 µM in the experiment with SK-MEL-2 melanoma; over 100 µM in the experiment with SN12C renal; 34 µM in the experiment on U251 CNS; 91.6 µM in the experiment on UACC-257 melanoma. In the experiment on UO-31 renal, the TGI was found to be 66.9 µM.
